Measured values published in patent US20100317524A1, “Sulfonylureas” (Bayer CropScience AG, priority 2005, published 2010).

Key:
[1] = test system: weed plants such as Sinapis alba, Chrysanthemum segetum, Avena sativa, Stellaria media, Echinochloa crus-galli, Lolium multiflorum, Setaria viridis, Abutilon …; assay: Pre-emergence effect on weeds (greenhouse pot test, visual scoring); format: in vivo; conditions: applied pre-emergence at a rate of 0.3 kg or less of active substance per hectare; visual scoring after 3 to 4 weeks vs untreated controls
From the text: Seeds or sections of rhizome from monocot and dicot weed plants were laid out in sandy loam soil in cardboard pots, and covered with soil. The compounds of the invention, formulated as wettable powders or emulsifiable concentrates, were then applied, in the form of aqueous suspensions or emulsions, at various dosages, onto the surface of the covering earth, at an application rate of 600 to 800 l of water per hectare (converted). Following the treatment, the pots were placed in a greenhouse and maintained under good growth conditions for the weeds. Visual scoring of the plant damage or emergence damage was made when the test plants had emerged, after a test time of 3 to 4 weeks, in comparison to untreated controls.

[2] = test system: weed plants such as Sinapis alba, Echinochloa crus-galli, Lolium multiflorum, Chrysanthemum segetum, Setaria viridis, Abutilon theophrasti, Amaranthus …; assay: Post-emergence effect on weeds (greenhouse pot test, visual scoring); format: in vivo; conditions: applied post-emergence (three-leaf stage) at a rate of 0.3 kg or less of active substance per hectare; visual scoring after about 3 to 4 weeks vs untreated controls
Experimental: Seeds or sections of rhizome from monocot and dicot broadleaf weeds were laid out in sandy loam soil in plastic pots, covered with earth, and cultivated in a greenhouse under good growth conditions. Three weeks after sowing, the test plants were treated at the three-leaf stage. The compounds of the invention, formulated as wettable powders or as emulsion concentrates, were sprayed in different dosages onto the green parts of the plants, at an application rate of 600 to 800 l of water per hectare (converted). After the test plants had stood in the greenhouse under optimum growth conditions for a period of about 3 to 4 weeks, the effect of the products was scored visually in comparison to untreated controls.

Row | SMILES | herbicidal action against weed plants, pre-emergence [1] | herbicidal action against weed plants, post-emergence [2]
1 | COc1cc(OC)nc(NC(=O)NS(=O)(=O)c2c(F)cccc2I)n1 [Compound 1.001] | very good herbicidal action | very good herbicidal action
2 | COc1nc(C)nc(NC(=O)NS(=O)(=O)c2c(F)cccc2I)n1 [Compound 1.002] | very good herbicidal action | very good herbicidal action
3 | Cc1cc(C)nc(NC(=O)NS(=O)(=O)c2c(F)cccc2I)n1 [Compound 1.003] | very good herbicidal action | very good herbicidal action
4 | COc1cc(Cl)nc(NC(=O)NS(=O)(=O)c2c(F)cccc2I)n1 [Compound 1.004] | very good herbicidal action | very good herbicidal action
5 | COc1cc(OC)nc(NC(=O)NS(=O)(=O)c2c(C)cccc2I)n1 [Compound 1.012] | very good herbicidal action | very good herbicidal action
6 | COc1nc(C)nc(NC(=O)NS(=O)(=O)c2c(C)cccc2I)n1 [Compound 1.016] | very good herbicidal action | very good herbicidal action
7 | Cc1cc(C)nc(NC(=O)NS(=O)(=O)c2c(C)cccc2I)n1 [Compound 1.020] | very good herbicidal action | very good herbicidal action
8 | COc1cc(Cl)nc(NC(=O)NS(=O)(=O)c2c(C)cccc2I)n1 [Compound 1.021] | very good herbicidal action | very good herbicidal action
9 | COc1nc(NC(=O)NS(=O)(=O)c2c(C)cccc2I)nc(OC)n1 [Compound 1.025] | very good herbicidal action | very good herbicidal action
10 | COc1cc(OC)nc(NC(=O)NS(=O)(=O)c2c(I)cccc2C(F)(F)F)n1 [Compound 1.091] | very good herbicidal action | very good herbicidal action
11 | COc1nc(C)nc(NC(=O)NS(=O)(=O)c2c(I)cccc2C(F)(F)F)n1 [Compound 1.095] | very good herbicidal action | very good herbicidal action
12 | Cc1cc(C)nc(NC(=O)NS(=O)(=O)c2c(I)cccc2C(F)(F)F)n1 [Compound 1.099] | very good herbicidal action | very good herbicidal action
13 | COc1cc(Cl)nc(NC(=O)NS(=O)(=O)c2c(I)cccc2C(F)(F)F)n1 [Compound 1.100] | very good herbicidal action | very good herbicidal action
14 | COc1nc(NC(=O)NS(=O)(=O)c2c(I)cccc2C(F)(F)F)nc(OC)n1 [Compound 1.104] | very good herbicidal action | very good herbicidal action
15 | COc1cc(OC)nc(NC(=O)NS(=O)(=O)c2c(I)cccc2OC)n1 [Compound 1.146, N-{[(4,6-Dimethoxypyrimidin-2-yl)amino]carbonyl}-2-iodo-6-methoxybenzenesulfonamide] | very good herbicidal action | very good herbicidal action
16 | COc1nc(C)nc(NC(=O)NS(=O)(=O)c2c(I)cccc2OC)n1 [Compound 1.150] | very good herbicidal action | very good herbicidal action
17 | COc1cccc(I)c1S(=O)(=O)NC(=O)Nc1nc(C)cc(C)n1 [Compound 1.154] | very good herbicidal action | very good herbicidal action
18 | COc1cc(Cl)nc(NC(=O)NS(=O)(=O)c2c(I)cccc2OC)n1 [Compound 1.155] | very good herbicidal action | very good herbicidal action

Row | SMILES | herbicidal action against weed plants, pre-emergence [1] | herbicidal action against weed plants, post-emergence [2]
19 | COc1nc(NC(=O)NS(=O)(=O)c2c(I)cccc2OC)nc(OC)n1 [Compound 1.159] | very good herbicidal action | very good herbicidal action
20 | CCOc1cccc(I)c1S(=O)(=O)NC(=O)Nc1nc(OC)cc(OC)n1 [Compound 1.164] | very good herbicidal action | very good herbicidal action
21 | CCOc1cccc(I)c1S(=O)(=O)NC(=O)Nc1nc(C)nc(OC)n1 [Compound 1.165] | very good herbicidal action | very good herbicidal action
22 | CCOc1cccc(I)c1S(=O)(=O)NC(=O)Nc1nc(C)cc(C)n1 [Compound 1.166] | very good herbicidal action | very good herbicidal action
23 | CCOc1cccc(I)c1S(=O)(=O)NC(=O)Nc1nc(Cl)cc(OC)n1 [Compound 1.167] | very good herbicidal action | very good herbicidal action
24 | CCOc1cccc(I)c1S(=O)(=O)NC(=O)Nc1nc(OC)nc(OC)n1 [Compound 1.168] | very good herbicidal action | very good herbicidal action
25 | CCCOc1cccc(I)c1S(=O)(=O)NC(=O)Nc1nc(OC)cc(OC)n1 [Compound 1.171] | very good herbicidal action | very good herbicidal action
26 | CCCOc1cccc(I)c1S(=O)(=O)NC(=O)Nc1nc(C)cc(C)n1 [Compound 1.173] | very good herbicidal action | very good herbicidal action
27 | CCCOc1cccc(I)c1S(=O)(=O)NC(=O)Nc1nc(Cl)cc(OC)n1 [Compound 1.174] | very good herbicidal action | very good herbicidal action
28 | CCCOc1cccc(I)c1S(=O)(=O)NC(=O)Nc1nc(OC)nc(OC)n1 [Compound 1.175] | very good herbicidal action | very good herbicidal action
29 | COc1cc(OC)nc(NC(=O)NS(=O)(=O)c2c(I)cccc2OC(C)C)n1 [Compound 1.178] | very good herbicidal action | very good herbicidal action
30 | COc1nc(C)nc(NC(=O)NS(=O)(=O)c2c(I)cccc2OC(C)C)n1 [Compound 1.182] | very good herbicidal action | very good herbicidal action
31 | Cc1cc(C)nc(NC(=O)NS(=O)(=O)c2c(I)cccc2OC(C)C)n1 [Compound 1.186] | very good herbicidal action | very good herbicidal action
32 | COc1cc(Cl)nc(NC(=O)NS(=O)(=O)c2c(I)cccc2OC(C)C)n1 [Compound 1.187] | very good herbicidal action | very good herbicidal action
33 | COc1nc(NC(=O)NS(=O)(=O)c2c(I)cccc2OC(C)C)nc(OC)n1 [Compound 1.191] | very good herbicidal action | very good herbicidal action
34 | CCCCOc1cccc(I)c1S(=O)(=O)NC(=O)Nc1nc(OC)cc(OC)n1 [Compound 1.192] | very good herbicidal action | very good herbicidal action
35 | CCC(C)Oc1cccc(I)c1S(=O)(=O)NC(=O)Nc1nc(OC)cc(OC)n1 (stereo not shown) [Compound 1.196] | very good herbicidal action | very good herbicidal action
